The values below come from patent US20240115881A1, “METHODS AND SYSTEMS FOR DETERMINING THE DISTRIBUTION OF RADIATION DOSE AND RESPONSE” (priority 2022, published 2024).

Values joined by “and” are separate entries in the source; they are usually repeats but may differ in a detail not shown here. Identical values can stand only once. Like-named read-outs stand apart in the source and are kept apart here.

The subject of data set [1] is MDA-MB-468 human breast cancer cell line grown as spheroids. The note with it: cited from earlier work.
Data set [2] deals with Chinese hamster V79 lung fibroblasts. Description: clonogenic survival assay (colony formation) after single-agent treatment. It is filed as cell-based. The procedure: The surviving fraction SF of cells exposed to the agent was assessed with a clonogenic survival assay and plotted as a function of several different variables including extracellular concentration, <I>net, absorbed dose (Gy), and mean cellular activity (mBq/cell). The resulting survival curves were of a 1- or 2-component exponential form. Analogous to the cellular activity and absorbed dose required to achieve 37% survival, a37 and D37, the net mean lethal fluorescence intensity of the drug required to achieve 37% survival, <I>net37 , can be defined similarly and obtained from plots of SF versus <I>net.
To evaluate ^210Po cytotoxicity, the surviving fraction was plotted as a function of EuTc-citrate net MFI, mean cellular uptake of ^210Po, and mean absorbed dose to the nucleus (FIG. 4A). […] The relationships between cell survival and EuTc-citrate net MFI or cellular ^210Po activity can be described by an exponential function SF=exp(−A/A1). The relationship between cell survival and drug net MFI (or extracellular concentration) for daunomycin and doxorubicin are illustrated in FIGS. 4B and 4C, respectively. For both drugs, clonogenic survival and cellular drug uptake (as determined by net MFI) are related via two component exponential functions SF=b exp(−A/A1)+(1-b) exp(−A/A2). A is the intracellular activity of ^210Po-citrate, absorbed dose to the cell nucleus, or drug concentration. Least squares fits of the survival data to this function were performed. The variable b is a fitted parameter.
Chinese hamster V79 lung fibroblasts were used. Two different formulations of minimum essential media (MEMA and MEMB) were used, as known in the literature. All media and supplements were Gibco (Carlsbad, CA), including fetal calf serum (catalog no. 10437, lot no. 539574). For routine maintenance, cells were grown as monolayers in Falcon 25-cm^2 tissue culture flasks (BD, Franklin Lakes, NJ, catalog no. 353082) at 37° C., 5% CO2-95% air, and subcultured twice weekly. For experiments, V79 cells (passage 4-11) were transferred into Falcon 225-cm^2 flasks (BD, catalog no. 353138), and were used upon reaching 80%-90% confluence.
Cells grown in 225-cm^2 flasks were trypsinized (0.25% trypsin, Gibco, catalog no. 25200-056), and MEMB was added to obtain 2×10^6 cells/mL. Aliquots of 1 mL were placed in Falcon 17×100 mm polypropylene tubes (BD, catalog no. 352018) and placed on a rocker-roller (Thermo Fisher, Fair Lawn, NJ) for 3 hours at 37° C. with 5% CO2 and 95% air. After this conditioning period, cells were treated with drug or radiochemical. Cell cultures were exposed to radiochemical and drugs for 0.5 and 2.5 h, respectively.
^210PoCl4 in 2 mol/L HCI was obtained at 370 MBq/mL from Eckert&Ziegler Isotope Products (Valencia, CA, catalog no. 6310). ^210Po-citrate was prepared as follows. Briefly, PoCl4 solution was mixed with 1 mol/L sodium citrate in the ratio of 1:7 (final pH 5.8), and was diluted with MEMB to a volume of 4 mL (final pH 6.9). One milliliter of MEMB containing 210Po-citrate was added to the 1 mL of conditioned V79 cultures (2×10^6 cells/mL), to arrive at a concentration of 0-250 kBq/mL (pH 6.9-7.0). After incubating for 30 min, the cells were washed 2× with MEMB, resuspended in 2 mL of MEMB, and incubated on a rocker-roller for 2.5 h to simulate concomitant drug exposure. The cells were resuspended in a 5 mL of MEMB, passed 5× through a needle, and counted with a Beckman Coulter Model Z2 (Brea, CA). Aliquots (500 μL) of the cell suspension were transferred to vials, mixed with 5 mL Ecolume (MP Biomedical, Solon, OH, catalog no. 882470), and counted with a Beckman Coulter LS6500, and the mean activity per cell was determined (efficiency, 50% as per prior studies). Aliquots of about 5×10^5 cells were counted in triplicate for ^210Po activity and the cpm ranged from 10^3-10^5. The triplicate measurements kept statistical variations to a minimum. […]

For the next data set, the system named is V79 cells. Description: cellular 210Po activity, biologic clearance and cellular dosimetry (liquid scintillation counting). It is filed as cell-based, Chinese hamster. The note with it: for intracellular 210Po activity: corresponding to 0.1 mmol/L citrate. The procedure: The absorbed dose to the cell nucleus was determined as known in the art. Since cells were treated with ^210Po-citrate as a single-cell suspension and were subsequently seeded for colony formation, the small contribution of cross-irradiation from neighboring cells in the colony can be ignored because it is essentially counterbalanced by the reduction in self-dose caused by flattening of cells during the colony forming period. The data was least-squares fitted to obtain a mean biologic half-time of 11.6 h. […] This Tc, the maintenance period of 2.5 h, the subcellular distribution of ^210Po-citrate (28% nucleus, 72% cytoplasm) for V79 cells and published S values, were used to calculate a mean absorbed dose to the cell nucleus of 5.8 Gy/mBq of ^210Po incorporated into the cell.
^210PoCl4 in 2 mol/L HCI was obtained at 370 MBq/mL from Eckert&Ziegler Isotope Products (Valencia, CA, catalog no. 6310). ^210Po-citrate was prepared as follows. Briefly, PoCl4 solution was mixed with 1 mol/L sodium citrate in the ratio of 1:7 (final pH 5.8), and was diluted with MEMB to a volume of 4 mL (final pH 6.9). One milliliter of MEMB containing 210Po-citrate was added to the 1 mL of conditioned V79 cultures (2×10^6 cells/mL), to arrive at a concentration of 0-250 kBq/mL (pH 6.9-7.0). After incubating for 30 min, the cells were washed 2× with MEMB, resuspended in 2 mL of MEMB, and incubated on a rocker-roller for 2.5 h to simulate concomitant drug exposure. The cells were resuspended in a 5 mL of MEMB, passed 5× through a needle, and counted with a Beckman Coulter Model Z2 (Brea, CA). Aliquots (500 μL) of the cell suspension were transferred to vials, mixed with 5 mL Ecolume (MP Biomedical, Solon, OH, catalog no. 882470), and counted with a Beckman Coulter LS6500, and the mean activity per cell was determined (efficiency, 50% as per prior studies). Aliquots of about 5×10^5 cells were counted in triplicate for ^210Po activity and the cpm ranged from 10^3-10^5. The triplicate measurements kept statistical variations to a minimum. Each sample was serially diluted and plated in Falcon 60×15 mm tissue culture dishes for colony formation. Cultures were incubated for 7 days, and the colonies were fixed in 95% ethanol, stained with 0.01% Amido Black, washed in tap-water, air-dried, and counted.
To determine the biologic clearance of ^210Po from the cells, 4×10^6 cells/mL were treated with ^210Pocitrate as described above. After two washes with MEMB, the cells were resuspended in 5 mL of MEMB, passed 5× through a needle, and Coulter counted. Aliquots of 500 μL of cells were transferred to vials and mixed with Ecolume. The remaining cell suspension was plated into 25-cm^2 flasks (1.0, 0.5, 0.5, 0.2 and 0.2×10^6 cells/flask). The cultures were harvested after 24, 48, 72, and 96 h, respectively. Each sample was processed for cell counting and liquid scintillation counting as described. All vials were counted after the last harvest. The ratio of cellular activity at each time point to that immediately after treatment was calculated and plotted.

Data set [3] has as its system Chinese hamster V79 lung fibroblasts. Particulars: obtained previously, older S values; cited from earlier work.

Consider “111In-DTPA-human epidermal growth factor [^111In-EGF]”, for which, in data set [1] (24 h treatment), the “activity distribution, cell surface” value is 62%; the “activity distribution, cytoplasm” value was 22%; the “activity distribution, nucleus” value is listed as 16%. The “distribution of 111In in the spheroid” value in data set [1] (after a 24-h treatment) is on record as “fully internalized”. In data set [1] (after a 1 h treatment), the “penetration into the spheroid” value is listed as ~20 μm. The “distribution of 111In in the spheroid” value in data set [1] (treated for 1 h) is “accumulated mainly on the periphery of the spheroid”.
For the substance ^210Po-citrate, the “cell kill at this activity” value in data set [2] (0.1 mmol/L citrate) was “no significant cell kill”. In data set [2] (0.21 mBq/cell), the “atoms of 210Po corresponding to the mean lethal uptake” value is “about 3600 atoms”. Moreover, the “uptake giving the mean lethal absorbed dose” value in data set [2] (V79 cells) came to 0.21 mBq/cell. For the same substance, in data set [2] (absorbed dose to the cell nucleus, V79 cells), the “mean lethal absorbed dose” value stood at 1.2 Gy. Moreover, the cell killing observed entry in data set [2] (over the range of cellular activities employed) is “less than 2 logs”. Besides, in the data set with V79 cells (V79 cells), the “subcellular distribution, cytoplasm” value worked out at 72% and the “subcellular distribution, nucleus” value amounted to 28%. In the data set on V79 cells (clearance of 210Po from V79 cells), this substance had a mean biologic half-time of 11.6 h. For the same substance, the “intracellular 210Po activity” value in the data set with V79 cells is 0.03 mBq/cell. Also, the “intracellular 210Po activity” value with V79 cells (listed as 210Po) was 0.03 mBq/cell and ~0.02 mBq/cell. Moreover, the “effective half-time Te” value with V79 cells (from biologic half-time and physical half-life of 138 d) is 11.6 h. The “former value of mean lethal dose” value in data set [3] is 0.7 Gy.
